According to US20040220249A1, “Prevention of surgical adhesions using selective COX-2 inhibitors” (Children's Medical Center Corporation, priority 2003, published 2004):

Tests used:
adhesions = conditions: cited from earlier work
[1] = tested on: endothelium (CD31/PECAM-1) of granulation tissue; assay: Microvessel density of granulation tissue surrounding the silicone patch (CD31 immunostaining, image analysis); type: in vivo, mice (C57BL/6); conditions: day 10; CD31-stained area as proportion of total area; mean ± SEM; control 6.4±0.6
Description: Silicone patches and abdominal wall were fixed at 4 degrees Celsius in 10% formalin overnight and washed with phosphate buffered saline. The specimens were then embedded in paraffin and 5 micron sections were cut. Endothelial cells were identified by antibody staining against the endothelial cell surface antigen CD31 (PECAM-1) and a diaminobenzidine chromogen (BD Biosciences Pharmingen, San Diego, Calif.). After deparaffinization and rehydration, sections were incubated with proteinase K (Roche, Basel, Switzerland) for 30 min at 37° C. Non-specific binding sites were blocked for 30 min at room temperature with TNB blocking buffer (NEN Life Sciences, Boston, Mass.). Primary CD31 antiserum (Pharmingen) was added to the sections overnight at 4° C. Slides were washed twice with phosphate buffered saline and secondary goat anti-mouse IgG antibody (Vector Laboratories, Burlingame, Calif.) was then added for 30 min at room temperature. After again washing twice with PBS the slides were incubated with streptavidin alkaline phosphatase solution (1:100) (Perkin-Elmer Life Sciences, Boston, Mass.) for 30 min at room temperature followed by biotinyl tyramide amplification dilutent (1:50) (Perkin-Elmer Life Sciences) for 10 min. After repeat incubation with alkaline phosphatase solution (1:100), for 30 min at room temperature, the chromagen, Vector Novar substrate kit (Vector Laboratories) was added. Slides were lightly counterstained with hematoxylin for imaging.
Sections were taken from the abdominal wall, patch, and lesions at sacrifice on day 10. To quantitate vessel density, CD31 immunostained sections underwent digital image analysis using a Nikon Eclipse TE300 inverting photomicroscope with an attached Spot RT (Diagnostic Instruments Inc.) video camera linked to a personal computer. Images were imported directly to the image analysis program IP Lab (Scanalytics Inc., Fairfax, Va.). Sequential images were grabbed at 200× for the […] sections without overlapping. To calculate the volume fraction of stained regions, a color threshold was chosen for each image that distinguished between the stained areas and background. The proportion of the selected color was calculated as a percentage of total area and used as a measure of vessel density. Sections from 3 different mice for each of the study groups were examined and vascularization was scanned and quantified in 5 representative fields per section.

[2] = tested on: intra-abdominal adhesion formation; assay: Intra-abdominal adhesion model (laparotomy, cecal abrasion, silicone patch), adhesion score; type: in vivo, mice (C57BL/6); conditions: for intra-abdominal adhesion score (total, 0-16): 10 days after surgery, oral treatment for 10 days from day of surgery, mean +/- SEM, control 13.6+/-0.49; for decrease of intra-abdominal adhesion formation: FIG. 2, versus control mice; for intra-abdominal adhesion score (total, 0-16), durability: treated for 10 days, observed an additional 25 days before sacrifice (day 35), control 13.4+/-1.0
Description: Seven to eight week-old male C57BL/6 mice (Jackson Laboratories, Bar Harbor, Me.) were housed five animals to a cage in a barrier room. Mice were acclimated to their environment for at least 72 hours prior to the initiation of each experiment and allowed food and water ad libitum. Animal protocols complied with the NIH Animal Research Advisory Committee guidelines and were approved by the Children's Hospital Institutional Animal Care and Use Committee. A standard adhesion model was performed as previously described (Chiang 2000). Specifically, a 5.0 mm×5.0 mm square piece of sterile silicone (Dow Corning, Midland, Mich.) was secured intra-abdominally to the right abdominal wall, lateral to the epigastric vessels, with two 7-0 proline sutures under isoflurane anesthesia. The cecum then was gently rubbed with two cotton swabs to promote adhesion formation.
After recovering from anesthesia, groups of mice were treated with either oral methylcellulose alone (100 μl, control) or an experimental drug mixed in 100 μl methylcellulose beginning on the day of surgery for 10 days. […] Mice treated with COX-2 selective inhibitors received either celecoxib (68 mg/kg orally twice a day) or rofecoxib (40 mg/kg orally once a day) (Laudanno 2001).
Ten and 35 days after surgery, mice were euthanized and adhesion formation over the silicone patch was measured by two blinded individuals based on a previously described scoring system (Chiang S, et al. J Ped Surg. 2000, 35, 189-196). The tenacity, type, and extent of adhesions to the patch, as well as the extent of adhesions to the cecum were graded on a scale of 0 to 4. The total adhesion score was the sum of the four individual scores (see table 1, below). A minimum score was 0 and the maximum score was 16. Tenacity was rated as none (0), adhesions fell apart (1), lysed with traction (2), lysed with blunt dissection (3), lysed with sharp dissection (4). Type was scored as none (0), filmy (1), mildly dense (2), moderately dense (3), very dense (4). Extent was measured as the percent of the patch covered by adhesion: 0% (0), <25% (1), 25-50% (2), 50-75% (3), >75% (4). Cecal adhesions were graded as none (0), adhesions fell apart (1), lysed with traction (2), lysed with blunt dissection (3), lysed with sharp dissection (4).

| SMILES | side-effects (adhesions; literature) | inhibition of adhesions (adhesions; murine model (Chiang 2001)) | microvessel density of granulation tissue surrounding the silicone patch [1] | macroscopic adhesion formation over the silicone patch (photograph) ([2]; 10 days after laparotomy, cecal abrasions and silicone patch placement, FIG. 1) | intra-abdominal adhesion score (total, 0-16) [2] | decrease of intra-abdominal adhesion formation [2] | intra-abdominal adhesion score (total, 0-16), durability [2] |
| --- | --- | --- | --- | --- | --- | --- | --- |
| CO[C@@H]1[C@H](OC(=O)NC(=O)CCl)CC[C@]2(CO2)[C@H]1[C@@]1(C)O[C@@H]1CC=C(C)C [TNP-470] | absence of healing of abdominal wounds | inhibit adhesions | – | – | – | – | – |
| CC(=O)Oc1ccccc1C(=O)O [aspirin] | – | – | 13.3±1.0 | dense adhesion formation over the silicone patch | 13.8+/−0.4 | no effect | 12.2+/−1.2 |
| Cc1ccc(-c2cc(C(F)(F)F)nn2-c2ccc(S(N)(=O)=O)cc2)cc1 [celecoxib] | – | – | 3.8±0.8 | – | 1.36+/−0.5 | 74% | 1.5+/−0.9 |
| CC(C)Cc1ccc(C(C)C(=O)O)cc1 (stereo not shown) [ibuprophen] | – | – | 9.9±1.1 | – | 7.8+/−1.4 | – | – |
| COc1ccc2c(c1)c(CC(=O)O)c(C)n2C(=O)c1ccc(Cl)cc1 [indomethacin] | – | – | 11.3±1.5 | – | 7.3+/−1.7 | – | – |
| COc1ccc2cc([C@H](C)C(=O)O)ccc2c1 [naproxen] | – | – | – | – | 8.4+/−2.2 | – | – |
| CS(=O)(=O)c1ccc(C2=C(c3ccccc3)C(=O)OC2)cc1 [rofecoxib] | – | – | 7.9±0.6 | – | 3.6+/−1.1 | 91% | – |
